From patent publication US9862717B2 (Merck Patent GmbH, priority 2014, dated 2018) come the findings set out here.

T1 sequence (P49336 whole entry): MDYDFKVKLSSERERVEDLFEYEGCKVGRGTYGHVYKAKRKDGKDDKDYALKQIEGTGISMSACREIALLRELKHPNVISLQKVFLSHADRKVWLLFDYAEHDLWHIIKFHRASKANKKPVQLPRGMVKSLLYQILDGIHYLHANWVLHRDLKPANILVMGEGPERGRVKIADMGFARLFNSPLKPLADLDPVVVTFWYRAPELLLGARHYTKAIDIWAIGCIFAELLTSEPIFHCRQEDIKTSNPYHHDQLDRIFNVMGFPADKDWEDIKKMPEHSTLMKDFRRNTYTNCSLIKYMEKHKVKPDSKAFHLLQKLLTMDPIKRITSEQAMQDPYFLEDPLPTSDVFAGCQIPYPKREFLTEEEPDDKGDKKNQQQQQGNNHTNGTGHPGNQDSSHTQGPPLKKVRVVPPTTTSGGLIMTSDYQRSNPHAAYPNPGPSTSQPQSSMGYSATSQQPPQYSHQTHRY
T1 sequence (P24863 whole entry partner): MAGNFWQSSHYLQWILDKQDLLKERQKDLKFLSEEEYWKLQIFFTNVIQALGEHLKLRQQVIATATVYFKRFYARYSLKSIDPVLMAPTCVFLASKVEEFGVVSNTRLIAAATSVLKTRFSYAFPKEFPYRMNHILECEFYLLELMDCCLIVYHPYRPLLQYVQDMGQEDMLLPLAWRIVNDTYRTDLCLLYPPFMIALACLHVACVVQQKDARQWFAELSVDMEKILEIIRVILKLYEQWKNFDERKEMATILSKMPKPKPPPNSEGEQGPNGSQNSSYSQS

One assay concerns the target T1, CDK8/CycC (Homo sapiens, UniProt P49336).
T1 construct: purchased Invitrogen PV4402
Put plainly: FRET based Lanthascreen binding competition assay for CDK8 inhibitory activity. The conditions noted are these: CDK8 co-expressed with CycC; class symbols. The gist of the method:
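Competition binding of a dye-labeled ATP-competitive Alexa647 probe to CDK8 co-expressed with CycC, Eu-labeled via biotinylated anti-His antibody/streptavidin.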
`Cc1n[nH]c2ncc(C(=O)N3CCCC3c3ccccc3OCC(F)(F)F)cc12` (stereo not shown) [compound 162, (3-Methyl-1H-pyrazolo[3,4-b]pyridin-5-yl)-{2-[2-(2,2,2-trifluoro-ethoxy)-phenyl]-pyrrolidin-1-yl}-methanone] had an IC50 of 0.1 to 1 µM.

The assay is the same for the next values; noted with them: CDK8 co-expressed with CycC; class symbols; read-out: IC50.
As for `Cc1n[nH]c2ncc(C(=O)N3CCC(C)C3c3ccc(C(F)(F)F)cc3)cc12` (stereo not shown) [compound 159, (3-Methyl-1H-pyrazolo[3,4-b]pyridin-5-yl)-[3-methyl-2-(4-trifluoromethyl-phenyl)-pyrrolidin-1-yl]-methanone], the IC50 lay within 0.01 to 0.1 µM.

As to `Cc1n[nH]c2ncc(C(=O)N3CC(C)CC3c3ccc(C(F)(F)F)cc3)cc12` (stereo not shown) [compound 160, (3-Methyl-1H-pyrazolo[3,4-b]pyridin-5-yl)-[4-methyl-2-(4-trifluoromethyl-phenyl)-pyrrolidin-1-yl]-methanone], the half-maximal inhibitory concentration (IC50) was 0.1 to 1 µM.

On to `Nc1n[nH]c2ccc(C(=O)N3CCCC3c3ccc(Cl)c(F)c3)cc12` (stereo not shown) [compound 167, (3-Amino-1H-indazol-5-yl)-[2-(4-chloro-3-fluoro-phenyl)-pyrrolidin-1-yl] methanone], for which the 50% inhibitory concentration (IC50) lay in the range of 0.01 to 0.1 µM.

As to `O=C(c1cnc2[nH]nc(C3CC3)c2c1)N1CCCCC1c1ccccc1` (stereo not shown) [compound 168, (3-Cyclopropyl-1H-pyrazolo[3,4-b]pyridin-5-yl)-(2-phenyl-piperidin-1-yl)-methanone], the concentration for half-maximal inhibition (IC50) was 0.1 to 1 µM.

In the case of `O=C(c1cnc2[nH]nc(C(F)(F)F)c2c1)N1CCCCC1c1ccccc1` (stereo not shown) [compound 169, (2-Phenyl-piperidin-1-yl)-(3-trifluoromethyl-1H-pyrazolo[3,4-b]pyridin-5-yl)-methanone], the IC50 lay in the range of 0.1 to 1 µM.

Take `Cc1n[nH]c2ncc(C(=O)N3CC[C@@H](C)[C@H]3c3ccc(C(F)(F)F)cc3)cc12` [compound 172, (3-Methyl-1H-pyrazolo[3,4-b]pyridin-5-yl)-[(2S,3R)-3-methyl-2-(4-trifluoromethyl-phenyl)-pyrrolidin-1-yl]-methanone]: the IC50 was under 0.01 µM.

For `Cc1n[nH]c2ncc(C(=O)N3CC[C@@H]3c3ccc(F)cc3)cc12` [compound 175, [(R)-2-(4-Fluoro-phenyl)-azetidin-1-yl]-(3-methyl-1H-pyrazolo[3,4-b]pyridin-5-yl)-methanone], the IC50 fell in the range of 0.1 to 1 µM.

For `Cc1n[nH]c2ncc(C(=O)N3CCCC3c3ccc(Cl)c(F)c3)cc12` (stereo not shown) [compound 179, [2-(4-Chloro-3-fluoro-phenyl)-pyrrolidin-1-yl]-(3-methyl-1H-pyrazolo[3,4-b]pyridin-5-yl)-methanone], the half-maximal inhibitory concentration (IC50) lay in the range of 0.01 to 0.1 µM.

In the case of `Cc1n[nH]c2ncc(C(=O)N3CCNC(c4ccccc4)C3)cc12` (stereo not shown) [compound 182, (3-Methyl-1H-pyrazolo[3,4-b]pyridin-5-yl)-(3-phenyl-piperazin-1-yl)-methanone], the half-maximal inhibitory concentration (IC50) fell in the range of 1 to 10 µM.

Turning to `O=C(c1cnc2[nH]nc(C(F)(F)F)c2c1)N1CCCC[C@@H]1c1ccccc1` [compound 183, ((R)-2-Phenyl-piperidin-1-yl)-(3-trifluoromethyl-1H-pyrazolo[3,4-b]pyridin-5-yl)-methanone], the half-maximal inhibitory concentration (IC50) was in the range of 0.1 to 1 µM.

`O=C(c1cnc2[nH]nc(C(F)(F)F)c2c1)N1CCCC[C@H]1c1ccccc1` [compound 184, ((S)-2-Phenyl-piperidin-1-yl)-(3-trifluoromethyl-1H-pyrazolo[3,4-b]pyridin-5-yl)-methanone]: the IC50 fell in the range of 0.1 to 1 µM.

On to `Cc1n[nH]c2ncc(C(=O)N3C[C@@H](C(N)=O)[C@H](c4ccc(Cl)cc4)C3)cc12` [compound 185, (3S,4R)-4-(4-Chloro-phenyl)-1-(3-methyl-1H-pyrazolo[3,4-b]pyridine-5-carbonyl)-pyrrolidine-3-carboxylic acid amide], for which the IC50 fell in the range of 1 to 10 µM.

On to `Cc1n[nH]c2ncc(C(=O)N3C[C@H](C(N)=O)[C@@H](c4ccc(Cl)cc4)C3)cc12` [compound 186, (3R,4S)-4-(4-Chloro-phenyl)-1-(3-methyl-1H-pyrazolo[3,4-b]pyridine-5-carbonyl)-pyrrolidine-3-carboxylic acid amide], for which the concentration for half-maximal inhibition (IC50) lay within 0.1 to 1 µM.

Turning to `Cc1n[nH]c2ncc(C(=O)N3CCCC3c3ccc(Cl)c(Cl)c3)cc12` (stereo not shown) [compound 188, [2-(3,4-Dichloro-phenyl)-pyrrolidin-1-yl]-(3-methyl-1H-pyrazolo[3,4-b]pyridin-5-yl)-methanone], the IC50 was 0.01 to 0.1 µM.

In the case of `CC(C)c1ccc([C@@H]2CCCN2C(=O)c2ccc3[nH]nc(N)c3c2)cc1` [compound 194, (3-Amino-1H-indazol-5-yl)-[(S)-2-(4-isopropyl-phenyl)-pyrrolidin-1-yl]-methanone], the IC50 was under 0.01 µM.

For `CC(C)c1ccc([C@H]2CCCN2C(=O)c2ccc3[nH]nc(N)c3c2)cc1` [compound 195, (3-Amino-1H-indazol-5-yl)-[(R)-2-(4-isopropyl-phenyl)-pyrrolidin-1-yl]-methanone], the half-inhibitory concentration (IC50) is 0.1 to 1 µM.

As to `Cc1n[nH]c2ncc(C(=O)N3CCC[C@H]3c3ccc(C(C)C)cc3)cc12` [compound 196, [(S)-2-(4-Isopropyl-phenyl)-pyrrolidin-1-yl]-(3-methyl-1H-pyrazolo[3,4-b]pyridin-5-yl)-methanone], the IC50 was under 0.01 µM.

On to `Cc1n[nH]c2ncc(C(=O)N3CCC[C@@H]3c3ccc(C(C)C)cc3)cc12` [compound 197, [(R)-2-(4-Isopropyl-phenyl)-pyrrolidin-1-yl]-(3-methyl-1H-pyrazolo[3,4-b]pyridin-5-yl)-methanone], for which the IC50 was in the range of 0.1 to 1 µM.

For `Cc1n[nH]c2ncc(C(=O)N3CC[C@](O)(c4ccccc4)C3)cc12` [compound 198, ((S)-3-Hydroxy-3-phenyl-pyrrolidin-1-yl)-(3-methyl-1H-pyrazolo[3,4-b]pyridin-5-yl)-methanone], the IC50 fell in the range of 1 to 10 µM.

For the compound `Cc1n[nH]c2ncc(C(=O)N3CCC3c3ccc(F)cc3)cc12` (stereo not shown) [compound 200, [2-(4-Fluoro-phenyl)-azetidin-1-yl]-(3-methyl-1H-pyrazolo[3,4-b]pyridin-5-yl)-methanone], the 50% inhibitory concentration (IC50) fell in the range of 0.1 to 1 µM.

With `Cc1n[nH]c2cc(F)c(C(=O)N3CCC[C@@H]3c3ccc(Cl)cc3)cc12` [compound 203, [(R)-2-(4-Chloro-phenyl)-pyrrolidin-1-yl]-(6-fluoro-3-methyl-1H-indazol-5-yl)-methanone], the IC50 was in the range of 1 to 10 µM.

Take `Cc1n[nH]c2ccc(C(=O)N3CC[C@H]3c3ccc(F)cc3)cc12` [compound 204, [(S)-2-(4-Fluoro-phenyl)-azetidin-1-yl]-(3-methyl-1H-indazol-5-yl)-methanone]: the concentration for half-maximal inhibition (IC50) was under 0.01 µM.

With `Cc1n[nH]c2cc(F)c(C(=O)N3CCC[C@H]3c3ccc(Cl)cc3)cc12` [compound 206, [(S)-2-(4-Chloro-phenyl)-pyrrolidin-1-yl]-(6-fluoro-3-methyl-1H-indazol-5-yl)-methanone], the IC50 is under 0.01 µM.

For `Cc1n[nH]c2ccc(C(=O)N3CC[C@@H]3c3ccc(F)cc3)cc12` [compound 207, [(R)-2-(4-Fluoro-phenyl)-azetidin-1-yl]-(3-methyl-1H-indazol-5-yl)-methanone], the 50% inhibitory concentration (IC50) was in the range of 0.01 to 0.1 µM.

With `Nc1n[nH]c2ccc(C(=O)N3CCC[C@H]3c3ccc(C(F)(F)F)cc3)cc12` [compound 208, (3-Amino-1H-indazol-5-yl)-[(S)-2-(4-trifluoromethyl-phenyl)-pyrrolidin-1-yl]-methanone], the half-inhibitory concentration (IC50) lay within 0.01 to 0.1 µM.

With `Nc1n[nH]c2ccc(C(=O)N3CCC[C@@H]3c3ccc(C(F)(F)F)cc3)cc12` [compound 209, (3-Amino-1H-indazol-5-yl)-[(R)-2-(4-trifluoromethyl-phenyl)-pyrrolidin-1-yl]-methanone], the IC50 is 0.1 to 1 µM.

Take `CSc1n[nH]c2ccc(C(=O)N3CCC[C@H]3c3ccc(Cl)cc3)cc12` [compound 210, [(S)-2-(4-Chloro-phenyl)-pyrrolidin-1-yl]-(3-methylsulfanyl-1H-indazol-5-yl)-methanone]: the IC50 was under 0.01 µM.

In the case of `COC(=O)C1CCN(C(=O)c2cnc3[nH]nc(C)c3c2)C(c2ccccc2)C1` (stereo not shown) [compound 211, 1-(3-Methyl-1H-pyrazolo[3,4-b]pyridine-5-carbonyl)-2-phenyl-piperidine-4-carboxylic acid methyl ester], the IC50 was 0.1 to 1 µM.

Consider `Cc1n[nH]c2ncc(C(=O)N3CCO[C@@](C)(c4ccc(Cl)cc4)C3)cc12` [compound 214, [(S)-2-(4-Chloro-phenyl)-2-methyl-morpholin-4-yl]-(3-methyl-1H-pyrazolo[3,4-b]pyridin-5-yl)-methanone], for which the IC50 was 1 to 10 µM.

As to `Cc1n[nH]c2ncc(C(=O)N3CCNC(=O)[C@H]3c3ccc(F)cc3)cc12` [compound 215, (R)-3-(4-Fluoro-phenyl)-4-(3-methyl-1H-pyrazolo[3,4-b]pyridine-5-carbonyl)-piperazin-2-one], the half-inhibitory concentration (IC50) fell in the range of 1 to 10 µM.

As for `O=C(c1ccc2[nH]nc(F)c2c1)N1CCC[C@H]1c1ccc(Cl)cc1` [compound 216, [(S)-2-(4-Chloro-phenyl)-pyrrolidin-1-yl]-(3-fluoro-1H-indazol-5-yl)-methanone], the IC50 is under 0.01 µM.

As for `O=C(c1ccc2[nH]nc(Cl)c2c1)N1CCC[C@H]1c1ccc(Cl)cc1` [compound 217, (3-Chloro-1H-indazol-5-yl)-[(S)-2-(4-chloro-phenyl)-pyrrolidin-1-yl]-methanone], the half-inhibitory concentration (IC50) fell in the range of 0.01 to 0.1 µM.

Still in this assay, the particulars now being: IC50 [μM], CDK8 co-expressed with CycC; class symbols.
`Cc1n[nH]c2ccc(C(=O)N3CCOCC3c3ccc(Cl)cc3)cc12` (stereo not shown) [compound 178] displayed an IC50 of under 0.01 µM.

In turn, `Cc1n[nH]c2cnc(C(=O)N3CCC[C@H]3c3ccc(Cl)cc3)cc12` [compound 190, [(S)-2-(4-Chloro-phenyl)-pyrrolidin-1-yl]-(3-methyl-1H-pyrazolo[3,4-c]pyridin-5-yl)-methanone] yielded an IC50 of 0.01 to 0.1 µM.

Regarding `Cc1n[nH]c2ccc(C(=O)N3CC[C@H]3c3ccc(Cl)cc3)cc12` [compound 202, [(S)-2-(4-Chloro-phenyl)-azetidin-1-yl]-(3-methyl-1H-indazol-5-yl)-methanone], the 50% inhibitory concentration (IC50) was under 0.01 µM.

For `Cc1n[nH]c2ccc(C(=O)N3CC[C@@H]3c3ccc(Cl)cc3)cc12` [compound 205, [(R)-2-(4-Chloro-phenyl)-azetidin-1-yl]-(3-methyl-1H-indazol-5-yl)-methanone], the half-inhibitory concentration (IC50) lay within 0.1 to 1 µM.
